From PubChem BioAssay (NCI)
Where “and” joins values, the source holds several entries; their conditions need not be identical. Equal entries are not always repeated.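 Each compound was tested at five concentrations against cells in 96-well plates for 48 hours. GI50 = concentration required for 50% inhibition of growth. TGI: concentration producing complete growth inhibition.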

What was measured:
Test in all cases: inhibition of tumour cell growth, NCI panel, 48 h
[1] = test system: HCT-15 colon
[2] = test system: A549 NSCLC
[3] = test system: NCI-H226 lung
[4] = test system: SNB-75 CNS
[5] = test system: UACC-257 melanoma
[6] = test system: ACHN renal
[7] = test system: MCF7 breast
[8] = test system: NCI-H522 lung
[9] = test system: T-47D breast
[10] = test system: M14 melanoma

| SMILES | TGI [1] | TGI [2] | TGI [3] [µM] | TGI [4] [µM] | TGI [5] [µM] | TGI [6] [µM] | TGI [7] [µM] | TGI [8] [µM] | TGI [9] | TGI [10] [µM] | GI50 [1] [µM] | GI50 [2] | GI50 [3] [µM] | GI50 [4] [µM] | GI50 [5] [µM] | GI50 [6] [µM] | GI50 [7] [µM] | GI50 [8] | GI50 [9] [µM] | GI50 [10] [µM] |
| --- | --- | --- | --- | --- | --- | --- | --- | --- | --- | --- | --- | --- | --- | --- | --- | --- | --- | --- | --- | --- |
| OCC(O)C(O)C(O)C1SC(c2ccccc2)=NN1c1ccccc1 (centres undefined) | > 100 µM | > 100 µM | > 100 | 35.5 | > 100 | > 83 | > 100 | 75.4 | > 70.3 µM | > 100 |  |  |  |  |  |  |  |  |  |  |
| Cn1ccc2c(NCCN)c3c(c(NCCN)c21)C(=O)c1ccccc1C3=O | > 32 µM | 12.1 µM | 5.8 | 44.5 | > 27.7 | 9.04 | 7.22 | 4.92 | 62 µM | 8.68 | 2.8 | 2.83 µM | 1.3 | 18.9 | 10.2 | 2.5 | 0.442 | 0.498 µM | 27.4 | 2.32 |
| CCC1=C[C@@H]2CN(C1)Cc1c([nH]c3ccccc13)[C@@](C(=O)OC)(c1cc3c(cc1OC)N(C=O)[C@H]1[C@@](O)(C(=O)OC)[C@H](OC(C)=O)[C@]4(CC)[C@@H]5C[C@@H]5CN5CC[C@]31[C@@H]54)C2 | > 6.25 µM | > 6.25 µM | > 6.25 | > 5.74 | > 6.25 | > 6.25 | > 6.25 | 0.01 | > 6.25 µM | 0.0643 | 0.107 | 0.003 µM |  | 0.000766 | > 6.25 | 0.0315 | < 0.000625 | < 0.000625 µM | < 0.000625 | 0.00169 |
| COc1ccc(CNc2nc3cc(N)cc(N)c3nc2-c2ccccc2)cc1OC | > 94.1 µM | > 70.6 µM | 30.8 | 37.4 | 29.2 | 32 | > 63.2 | 24.6 | > 27.5 µM | 15.6 | 28 | 23.6 µM | 15.4 | 14.1 | 14.7 | 14.4 | 20.9 | 8.16 µM | 4.16 | 8.56 |
| N#Cc1ccccc1NC(=O)/C(=N\NC(=O)c1ccncc1)C(c1cnc2ccc([N+](=O)[O-])cc2n1)[N+](=O)[O-] (centres undefined) | > 100 µM | > 100 µM | > 100 | > 100 | > 100 | > 100 | > 100 | > 100 | > 100 µM | > 100 |  |  |  |  |  |  |  |  |  |  |
| C=C1C[C@@H]2C/C=C/C(=O)C/C(C)=C\C=C\C(=O)O[C@H](C=O)C/C(C)=C/[C@H](C1)O2 | 16.2 µM | > 100 µM | 49 | 1.96 | 34.7 | 21.8 | 13.6 | 19.5 | 54.3 µM | 0.738 | 0.485 | 1.98 µM | 8.49 | 0.294 | 14.1 | 6.64 | 0.277 | 4.48 µM | 1.42 | 0.281 |
| CC1(C)COCN1COC1CCCCC1 | > 100 µM | > 100 µM | > 100 | > 100 | > 100 | > 100 | > 100 | > 100 | > 100 µM | > 100 |  |  |  |  |  |  |  |  |  |  |
| O=C(c1cc(F)c(Cl)cc1Cl)N1N=C(c2ccccc2)CC1(O)c1ccccc1 (centres undefined) | 28.3 µM | > 100 µM | 36.5 | 59.6 | 51.6 | 59.4 | 38.2 | 36.9 | 53.7 µM |  | 13.8 | 27.8 µM | 17.3 | 20.7 | 24.7 | 23 | 18.3 | 14.5 µM | 18.1 |  |
| c1cc2c(cc1C(N1CCNCC1)N1CCNCC1)OCO2 | > 100 µM | > 100 µM | > 100 | > 100 | > 100 | > 100 | > 100 | > 100 | > 100 µM | > 100 |  |  |  |  |  |  |  |  |  |  |
| O=C1CCCCCCCC/C=C/CCC(c2ccco2)O1 (centres undefined) | > 100 µM | > 100 µM | > 100 | 92 | > 100 | > 100 | > 100 | > 100 | > 100 µM | > 100 | > 100 | > 100 µM | 34.8 | 23.7 | > 100 | > 100 | 15.8 | 37.7 µM | 21 | 67.7 |
| c1ccc(C(=NNc2nc3ccccc3o2)c2ccccn2)nc1 | > 75.4 µM and 17.9 µM | > 34.5 µM and 16.5 µM |  | 24.1 | 0.633 |  |  |  | 12.4 µM and 25.8 µM |  | 0.0376 | 0.108 µM | 0.0628 | 0.397 | 0.163 | 0.0395 | 0.0289 | 0.0339 µM |  | 0.0418 |
| CC(C)(C)C(=O)Nc1ccccc1I(=O)=O | > 100 µM | > 100 µM | > 100 | > 100 | > 100 | > 100 | > 100 | > 100 | > 100 µM |  | > 100 | > 100 µM | > 100 | > 100 | > 100 | > 100 | > 100 | > 100 µM | > 100 |  |
| Cc1ccccc1CN1CC2=C(CCN(Cc3ccccc3)C2=O)N2CCN=C12 | > 100 µM | > 100 µM | > 100 | > 100 | > 100 | > 100 | > 100 | > 100 | > 84.2 µM | > 100 |  |  |  |  |  |  |  |  |  |  |
| CCOC(=O)CCCn1c(SC)nc2cc(-c3ccco3)[nH]c2c1=O | > 100 µM | > 100 µM | > 100 | 17.7 | > 100 | > 100 | > 100 | > 100 | > 100 µM | > 100 | > 100 | > 100 µM | > 100 | 4.55 | > 100 | 31.7 | > 100 | 35.1 µM | 39.6 | > 100 |
| COc1ccc(/C=C\c2cc(OC)c(OC)c(OC)c2)cc1OC(=O)C(N)CCC(=O)O (centres undefined) |  | 28.4 µM and > 100 µM | 0.0415 |  | 22.8 |  | > 100 |  | > 100 µM |  |  | 0.00398 µM and 0.0108 µM |  |  | 0.000603 |  | 0.00503 | 0.00114 µM and 0.000248 µM | > 100 | 0.000565 |
| O=C(/C=C/C=C/c1ccccc1)CCc1ccccc1 | > 100 µM | > 100 µM | > 100 | > 100 | > 100 |  | > 100 | > 100 | > 100 µM | > 100 |  |  |  |  |  |  |  |  |  |  |
